Reference: patent publication US20080096967A1, “Formulations for Injection of Catecholic Butanes, Including Ndga Compounds, Into Animals” (priority 2005, published 2008)

Test: Solubility of M4N in formulations containing modified celluloses (visual inspection); as to Dissolution After Rotation: key: N represents 'No'; Y represents 'Yes.'
Assay type: physicochemical
Description: A 10 mL solution of 50% HP-β-CD (w/v) and 0.5% hydroxypropyl methylcellulose (“HPMC”) (w/v) for use as a solubilizing agent and/or excipient was made as follows: 5.9 mL of water suitable for injection into animals (“WFI”) were placed in a glass beaker containing a stir bar. The beaker was placed on a magnetic plate, and the stir bar was set to stir at medium speed. Five grams of HP-β-CD were added slowly to the stirring WFI, using a spatula to direct the HP-β-CD to the center of the beaker. The HP-β-CD solution was stirred for about 24 hr or until the HP-β-CD was dissolved completely upon visual inspection. The resulting solution measured about 9.4 mL. About 0.6 mL of WFI was added to this resulting solution to reach 10 mL, to produce a solution of 50% HP-β-CD (w/v). Fifty milligrams of HPMC were added to the 50% HP-β-CD solution and stirred for about 1 hr or until the HPMC was dissolved upon visual inspection. The final solution was stirred for about 1 hr and was then stored at room temperature, protected from light. This method of making modified cyclodextrins with modified celluloses may be scaled up or down to obtain the desired volume or concentration of HP-β-CD/HPMC solution. Other modified cyclodextrin/modified cellulose solutions may be similarly made, for example, by substituting HP-β-CD with other modified cyclodextrins, or HPMC with other modified celluloses, in the process described above.
A 10 mL solution of M4N at a concentration of about 10 mg/mL in 50% HP-β-CD/0.5% HPMC was made as follows. About 10 mL of the 50% HP-β-CD/0.5% HPMC solution were added to a glass beaker containing a stir bar. The beaker was placed on a magnetic plate and the stir bar was set to stir at medium speed. About 100 mg of M4N were slowly added to the 50% HP-β-CD/0.5% HPMC in the center of the beaker with the aid of a spatula. The M4N/50% HP-β-CD/0.5% HPMC mixture was stirred for 24 hr or until all M4N was uniformly suspended without any clumps being present. The M4N/50% HP-β-CD/0.5% HPMC mixture was heated at about 90° C. for about 30 min. (or longer if a larger volume of solution was desired, for example, 1 hr at 90° C. for 500 mL of the M4N/50% HP-β-CD/0.5% HPMC mixture), or longer as needed to ensure complete dissolution of M4N. […] The final M4N/50% HP-β-CD/0.5% HPMC solution was stored at room temperature and was kept protected from light.
A 10 mL solution of 5% ethylcellulose (“EC”) in ethanol (w/v) for use as a solubilizing agent and/or excipient was made as follows: 10 mL of 100% ethyl alcohol (“EtOH”) were placed in a glass beaker containing a stir bar, covered by a round Teflon® cover. The beaker was placed on a magnetic plate, and the stir bar was set to stir at medium speed. Five hundred (500) milligrams of EC was added slowly to the stirring ethanol, using a spatula to direct the EC to the center of the beaker so as to prevent EC powder from sticking to the beaker wall. The EC solution was stirred for about 2 hr or until the EC was dissolved completely upon visual inspection. The final solution was stored at room temperature, and was protected from light.
A 10 mL solution of M4N at a concentration of about 20 mg/mL in 5% EC (w/v) (the “EC formulation”) was made as follows. About 10 mL of 5% EC formulation, made as described above, were added to a glass beaker containing a stir bar. The beaker was placed on a magnetic plate and the stir bar was set to stir at medium speed, and covered with a round Teflon® cover. About 200 mg of M4N were slowly added to the 5% EC formulation in the center of the beaker with the aid of a spatula to prevent M4N from sticking to the beaker wall. The M4N/EC mixture was stirred for 2 hr or until all M4N had dissolved or was uniformly suspended without any clumps being present. The M4N/EC mixture was heated at about 60° C. for about 30 min. […]

[1] = 50% HP-β-CD, 0.5% HPMC, M4N 1 mg/mL
[2] = 50% HP-β-CD, 0.5% HPMC, M4N 10 mg/mL
[3] = EC 5% (w/v) in EtOH, M4N 1 mg/mL
[4] = EC 5% (w/v) in EtOH, M4N 10 mg/mL
[5] = EC 5% (w/v) in EtOH, M4N 20 mg/mL

COc1ccc(C[C@@H](C)[C@@H](C)Cc2ccc(OC)c(OC)c2)cc1OC [Formulation M4N, meso-1,4-bis(3,4-dimethoxyphenyl)-2,3-dimethylbutane]
greater than 3 days: stable at room temperature (M4N 1 mg/mL in EC formulation (5% EC in EtOH), without heat) | stable at room temperature (M4N 10 mg/mL in EC formulation, dissolved at 40° C.) | stable at room temperature (M4N 20 mg/mL in EC formulation, dissolved at 60° C.)
did not remain in solution upon cooling: solution upon cooling (M4N 30 mg/mL in EC formulation, soluble at 60° C.) | solution upon cooling (M4N 50 mg/mL or 100 mg/mL in EC formulation, soluble at 90° C.)
>3 days: Stability Time at Room Temperature [3] | Stability Time at Room Temperature [4] | Stability Time at Room Temperature [5]
Y at 40 °C: Dissolution After Heating (EC 5% (w/v) in EtOH, M4N 10 mg/mL, 40° C.)
>7 days: Stability Time at Room Temperature [1] | Stability Time at Room Temperature [2]
N at 90 °C: Dissolution After Heating (2.3% HPMC, M4N 1 mg/mL, 90° C.) | Dissolution After Heating (2.3% HPMC, M4N 10 mg/mL, 90° C.) | Dissolution After Heating (2.3% HPMC, M4N 50 mg/mL, 90° C.) | Dissolution After Heating (2.3% HPMC, M4N 100 mg/mL, 90° C.) | Dissolution After Heating (50% HP-β-CD, 0.5% HPMC, M4N 50 mg/mL, 90° C.) | Dissolution After Heating (CMC (High Viscosity) 1% (w/v), M4N 1 mg/mL, 90° C.) | Dissolution After Heating (CMC (High Viscosity) 1% (w/v), M4N 10 mg/mL, 90° C.) | Dissolution After Heating (CMC (Low Viscosity) 4%, M4N 1 mg/mL, 90° C.) | Dissolution After Heating (CMC (Low Viscosity) 4%, M4N 10 mg/mL, 90° C.) | Dissolution After Heating (MC (Low viscosity) 2% (w/v), M4N 1 mg/mL, 90° C.) | Dissolution After Heating (MC (Low viscosity) 2% (w/v), M4N 10 mg/mL, 90° C.)
did not dissolve: dissolution (M4N 50 mg/mL in 50% HP-β-CD/0.5% HPMC at 90° C.)
Y: Dissolution After Rotation [3]
Y at 90 °C: Dissolution After Heating (50% HP-β-CD, 0.5% HPMC, M4N 1 mg/mL, 90° C.) | Dissolution After Heating (50% HP-β-CD, 0.5% HPMC, M4N 10 mg/mL, 90° C.) | Dissolution After Heating (EC 5% (w/v) in EtOH, M4N 50 mg/mL, 90° C.) | Dissolution After Heating (EC 5% (w/v) in EtOH, M4N 100 mg/mL, 90° C.)
Y at 60 °C: Dissolution After Heating (EC 5% (w/v) in EtOH, M4N 20 mg/mL, 60° C.) | Dissolution After Heating (EC 5% (w/v) in EtOH, M4N 30 mg/mL, 60° C.)
greater than 7 days: Stability at Room Temperature (M4N 1 mg/mL and 10 mg/mL in 50% HP-β-CD/0.5% HPMC, heated at 90° C., after cool down)
N: Dissolution After Rotation (2.3% HPMC, M4N 1 mg/mL) | Dissolution After Rotation (2.3% HPMC, M4N 10 mg/mL) | Dissolution After Rotation (2.3% HPMC, M4N 50 mg/mL) | Dissolution After Rotation (2.3% HPMC, M4N 100 mg/mL) | Dissolution After Rotation [1] | Dissolution After Rotation [2] | Dissolution After Rotation (50% HP-β-CD, 0.5% HPMC, M4N 50 mg/mL) | Dissolution After Rotation (CMC (High Viscosity) 1% (w/v), M4N 1 mg/mL) | Dissolution After Rotation (CMC (High Viscosity) 1% (w/v), M4N 10 mg/mL) | Dissolution After Rotation (CMC (Low Viscosity) 4%, M4N 1 mg/mL) | Dissolution After Rotation (CMC (Low Viscosity) 4%, M4N 10 mg/mL) | Dissolution After Rotation [4] | Dissolution After Rotation [5] | Dissolution After Rotation (EC 5% (w/v) in EtOH, M4N 30 mg/mL) | Dissolution After Rotation (EC 5% (w/v) in EtOH, M4N 50 mg/mL) | Dissolution After Rotation (EC 5% (w/v) in EtOH, M4N 100 mg/mL) | Dissolution After Rotation (MC (Low viscosity) 2% (w/v), M4N 1 mg/mL) | Dissolution After Rotation (MC (Low viscosity) 2% (w/v), M4N 10 mg/mL)
